Source: patent publication US20220152060A1, “PHYTOECDYSONES AND THE DERIVATIVES THEREOF FOR USE IN THE TREATMENT OF IMPAIRED LUNG FUNCTION” (BIOPHYTIS, priority 2019, published 2022)

Tests used:
mdx mice [1] = assay: whole-body plethysmography of respiratory function in response to metacholine; format: in vivo
Description: Male mice C57BL/10ScSnJ (healthy mice denoted as “C57Black10” in the figures) and C57BL/10ScSn-Dmdmdx/J (murine model of Duchenne muscular dystrophy, denoted “mdx” in the figures) aged 12 weeks, have been used. The mice have been divided into three groups of 12 mice each: an untreated group of healthy control mice C57Black10, a group of untreated mdx mice (mdx) and a group of mice chronically treated with a dose of 50 mg/kg/day, orally in the drinking water. The respiratory function of all the mice has been evaluated by whole-body plethysmography before the start of the study, (D0) then at 30 days (D30) and 60 days (D60) after the start of the treatment. After two months of treatment, the respiratory function has been invasively evaluated, just before sacrifice of the animal, by piston ventilated controlled by a central control unit (commonly called “computer”), said ventilator using the forced oscillation technique, such as the device known by the name FlexiVent™, in order to determine more directly the mechanical parameters of the respiratory system. In order to precisely monitor the change in respiratory function over the course of the treatment, whole-body plethysmography analyses (Emka Technologies, Paris, France) have been performed on the healthy control mice C57Black10, on the untreated mdx mice and on the mdx mice having been treated with BIO101. The advantages of this technique reside in the fact that it allows monitoring to be performed on an awake animal, freely moving in a hermetic enclosure, and that this is performed in a non-invasive manner. Consequently, the stress due to handling of the animals is reduced as it is possible to repeat the measurements over prolonged periods. Barometric plethysmography is therefore frequently used for measuring bronchial reactivity in small animals (Chong et al., 1998; Djuric et al., 1998; Hoffman et al., 1999). The pressure variations measured with respect to a reference chamber make it possible to define various respiratory parameters such as the peaks and times of inspiratory and expiratory pressure as well as a dimensionless quantity called Penh (enhanced Pause) which allows the bronchoconstriction to be evaluated. More specifically, the Penh, calculated from the pressure signal (Pb) in the chamber, is an important index to obtain, because the variations in Penh change in parallel with those of the respiratory resistance and it therefore represents a predictive parameter for changes in the resistive properties of the respiratory system (Hamelmann et al., 1997; Bergren, 2001; Onclinx et al., 2003). The following values have been calculated from the filtered Pb: the maximum variation in Pb during expiration (PEP: Peak Expiratory Pressure), the maximum change in Pb during inspiration (PIP: Peak Inspiratory Pressure) and the time interval (TR). The Penh value has then been calculated as follows: […] [Math. 1] where Pause=(TE−TR)/TE [Math. 2] • TE being the expiration time (Adler et al., 2004). Moreover, the peak inspiratory flow (PIF) and the peak expiratory flow (PEF), the relaxation time (RT) and the respiratory rate (BF) have also been measured and shown. The Penh value has been measured before the start of the treatment (D0), 30 days after the start of the treatment (D30) and 60 days after the treatment (D60). First, the entire cohort of mdx mice (n=24) were compared with healthy mice C57Black10 (n=12), before receiving the treatment. Awake mice were exposed to increasing doses of metacholine aerosols generated by a nebulizer containing 0 to 40 mg/mL of metacholine in PBS.

mdx mice [2] = assay: piston ventilator (FlexiVent) forced oscillation measurement of pulmonary resistance, compliance and elastance; format: in vivo; settings: 50 mg/kg/day oral
Description: Male mice C57BL/10ScSnJ (healthy mice denoted as “C57Black10” in the figures) and C57BL/10ScSn-Dmdmdx/J (murine model of Duchenne muscular dystrophy, denoted “mdx” in the figures) aged 12 weeks, have been used. The mice have been divided into three groups of 12 mice each: an untreated group of healthy control mice C57Black10, a group of untreated mdx mice (mdx) and a group of mice chronically treated with a dose of 50 mg/kg/day, orally in the drinking water. The respiratory function of all the mice has been evaluated by whole-body plethysmography before the start of the study, (D0) then at 30 days (D30) and 60 days (D60) after the start of the treatment. After two months of treatment, the respiratory function has been invasively evaluated, just before sacrifice of the animal, by piston ventilated controlled by a central control unit (commonly called “computer”), said ventilator using the forced oscillation technique, such as the device known by the name FlexiVent™, in order to determine more directly the mechanical parameters of the respiratory system. In order to determine more directly the mechanical parameters of the respiratory system and the impact of a chronic treatment over a period of two months by BIO101 (D60) on these parameters, the dynamic pulmonary resistance was measured using a piston ventilator system as previously described, in response to increasing doses of metacholine. The mice were anaesthetized and connected by an endotracheal cannula to the piston ventilator system. After the start of mechanical ventilation, each mouse received an intraperitoneal injection of 0.1 mL of a 10 mg/mL rocuronium bromide solution. The animal was ventilated at a respiratory rate of 150 respirations/minute and with a tidal volume of 10 mL/kg against a final positive expiratory pressure of 3 cm H2O. The respiratory mechanisms were evaluated using a forced oscillation maneuver with a duration of 1.2 seconds (2.5 Hz) and a 3-second wideband forced oscillation man oeuvre containing 13 primordial frequencies between 1 and 20.5 Hz. The resistance of the respiratory system (R) was calculated using a microcomputer type central processing unit connected to the piston ventilator system and comprising, in particular, software for performing said calculation. The two maneuvers were carried out alternately every 15 seconds after each nebulization with a metacholine aerosol, in order to measure the change in the response time of the bronchoconstriction induced by metacholine. The pulmonary resistance, compliance and elastance could thus be determined.

For `CC(C)(O)CC[C@@H](O)[C@](C)(O)[C@H]1CC[C@@]2(O)C3=CC(=O)[C@@H]4C[C@@H](O)[C@@H](O)C[C@]4(C)[C@H]3CC[C@]12C` [BIO101, 20-hydroxyecdysone], the relaxation time (mdx mice [1]; 50 mg/kg/day oral, 30 days, compared with untreated mdx mice, p<0.05 (FIG. 3D)) was “clear improvement in relaxation time”, the “peak inspiratory flow (cited to FIG. 3B)” value (mdx mice [1]; 50 mg/kg/day oral, 30 days, in comparison to D0) was “remain unchanged” and the respiratory rate (mdx mice [1]; 50 mg/kg/day oral, 30 days, in comparison to D0 (FIG. 3E)) was “remain unchanged”. For the same compound, the “peak inspiratory flow (cited to FIG. 3C)” value (mdx mice [1]; 50 mg/kg/day oral, 30 days, in particular equilibrium state or low metacholine dose, p<0.05) was “increase in peak inspiratory flow”, the peak expiratory flow (mdx mice [1]; 50 mg/kg/day oral, 60 days) was “remain unchanged” and the relaxation time (mdx mice [1]; 50 mg/kg/day oral, 60 days (FIG. 4D)) was “trend towards improved relaxation time”. The respiratory rate (mdx mice [1]; 50 mg/kg/day oral, 60 days (FIG. 4E)) was “remain unchanged”, the peak inspiratory flow (mdx mice [1]; 50 mg/kg/day oral, 60 days, p<0.05 (FIG. 4B)) was “significant improvement” and the “mean Penh value” (mdx mice [1]; 50 mg/kg/day oral, D60, metacholine dose of 40 mg/mL, untreated mdx 4, healthy 1.04 (FIG. 6B)) was 1.87. The “Penh in response to metacholine” value (mdx mice [1]; 50 mg/kg/day oral, after 60 days of treatment, compared to untreated mdx mice, p<0.0001 (FIG. 4A)) was “significant reduction in the Penh”, the “Penh in response to metacholine” value (mdx mice [1]; 50 mg/kg/day orally in drinking water, after 30 days of treatment, compared to mdx mice at D0, p<0.001 (FIG. 3A)) was “significant reduction in Penh” and the “resistance of the airways (pulmonary resistance)” value (mdx mice [2]; 60 days, metacholine 0 to 20 mg/mL, vs untreated mdx mice, p<0.0001) was “significantly lower resistance of the airways”. For the same compound, the pulmonary compliance (mdx mice [2]; D60, metacholine 20 mg/mL, untreated mdx 0.017, healthy 0.031 (FIG. 8B)) was 0.029 mL/cmH2O, the pulmonary elastance (mdx mice [2]; D60, metacholine 20 mg/mL, untreated mdx 34.8, healthy 62.8 as printed (FIG. 8C)) was 69.1 cmH2O/mL and the “pulmonary compliance, change at increasing metacholine doses” value (mdx mice [2]; two months, p<0.0001 (FIG. 7B)) was “significantly improved”. The “pulmonary elastance, change at increasing metacholine doses” value (mdx mice [2]; two months, p<0.0001 (FIG. 7C)) was “significantly improved”.
